The values below come from publication PMC3901259, “Characterisation of the Metabolites of 1,8-Cineole Transferred into Human Milk: Concentrations and Ratio of Enantiomers” (Metabolites, 2013).

The data set can be described thus: Quantification of 1,8-cineole metabolites in human milk (SAFE, GC-MS, internal standard and matrix calibration) after oral intake of 100 mg 1,8-cineole. Type of data set: in vivo. To be noted: for Absolute concentration in human milk: single determination. The method, boiled down: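 Lactating mothers took one capsule with 100 mg 1,8-cineole orally; milk expressed after eucalyptus odour noticed on breath (14 samples, 8 donors). Volatiles isolated by SAFE at 50 °C with deuterated 1,8-cineole internal standard, concentrated, and quantified by GC-MS on DB-FFAP and DB-5 columns; chiral columns for enantiomer ratios.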

A value given as a limit tells only on which side of the number the result lay.

With `CC1(C)OC2(C)CCC1CC2O` (stereo not drawn) [a2-hydroxy-1,8-cineole, α2-hydroxy-1,8-cineole], for the setting “after oral 100 mg 1,8-cineole, rounded summary”, the “Concentration range in human milk (abstract/conclusions)” value is 100 to 250 µg/kg. Also, the “Share of the metabolites on average” value (human milk, roughly estimated) was “about 70%”. The “Estimated maximum level in human milk (concentration calculated with the last calibration point, in parentheses)” value (sample A-1a (no odour)) is below 1.37 µg/kg. Further, the “Absolute concentration in human milk” value stood at 0.65 µg/kg (sample A-1a (no odour), oral 100 mg 1,8-cineole, values given with (<x) lie beyond calibration range, approximation); 138.10 µg/kg (sample A-1b (odour yes), oral 100 mg 1,8-cineole, values given with (<x) are approximations); 176.30 µg/kg (sample B-1 (odour yes), oral 100 mg 1,8-cineole, values given with (<x) are approximations); 0.61 µg/kg (sample B-2a (no odour), oral 100 mg 1,8-cineole); 113.55 µg/kg (sample B-2b (odour yes), oral 100 mg 1,8-cineole, values given with (<x) are approximations); 29.25 µg/kg (sample B-2c (no odour), oral 100 mg 1,8-cineole). Further, the “Absolute concentration in human milk” value is recorded as 7.68 µg/kg (sample C (no odour; very weak odour not caused by 1,8-cineole), oral 100 mg 1,8-cineole, values given with (<x) are approximations); 15.08 µg/kg (sample D-1 (no odour), oral 100 mg 1,8-cineole, values given with (<x) are approximations); 135.98 µg/kg (sample D-2 (odour yes), oral 100 mg 1,8-cineole, values given with (<x) are approximations); 2.02 µg/kg (sample E-1 (no odour), oral 100 mg 1,8-cineole, values given with (<x) are approximations); 233.31 µg/kg (sample E-2 (odour yes), oral 100 mg 1,8-cineole, values given with (<x) are approximations); 3.16 µg/kg (sample F (no odour), parent ingested two capsules, values given with (<x) are approximations). Moreover, the “Absolute concentration in human milk” value by setting is: (sample G (odour yes), oral 100 mg 1,8-cineole, values given with (<x) are approximations) 98.83 µg/kg; (sample H (odour yes), oral 100 mg 1,8-cineole, values given with (<x) are approximations) 206.09 µg/kg. Where the note is “seven positive samples (eucalyptus-like odour), Figure 2”, the “Concentration range in human milk samples” value lay in the range of 99 to 233 µg/kg.
